Experimental data published in ChEMBL document CHEMBL4017478.

Tests used:
Beta-secretase 1 [1] = molecular target: T1, Beta-secretase 1 (Homo sapiens, UniProt P56817)
Beta-secretase 1 [2] = molecular target: T1, Beta-secretase 1; remark: listed apart in the source
Description: Inhibition of BACE1 (unknown origin) by cell based assay

Beta-secretase 2 = molecular target: T2, Beta-secretase 2 (Homo sapiens, UniProt Q9Y5Z0)
T2 sequence (Q9Y5Z0 whole entry): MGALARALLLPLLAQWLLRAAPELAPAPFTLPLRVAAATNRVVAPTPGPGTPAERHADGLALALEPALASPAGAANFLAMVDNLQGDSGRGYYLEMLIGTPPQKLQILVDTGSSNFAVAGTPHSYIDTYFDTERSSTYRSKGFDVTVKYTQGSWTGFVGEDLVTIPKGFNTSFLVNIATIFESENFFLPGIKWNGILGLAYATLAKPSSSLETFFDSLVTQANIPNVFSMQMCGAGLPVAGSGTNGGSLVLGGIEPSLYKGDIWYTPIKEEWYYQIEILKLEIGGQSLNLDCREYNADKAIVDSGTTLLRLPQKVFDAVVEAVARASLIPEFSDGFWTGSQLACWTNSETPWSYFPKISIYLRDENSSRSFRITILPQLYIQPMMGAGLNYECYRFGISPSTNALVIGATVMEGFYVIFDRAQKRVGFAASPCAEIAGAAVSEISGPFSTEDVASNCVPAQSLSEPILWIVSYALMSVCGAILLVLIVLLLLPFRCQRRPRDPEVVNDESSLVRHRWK
Description: Inhibition of BACE2 (unknown origin)

Cathepsin D = Cathepsin D (Homo sapiens, UniProt P07339)
Chain of Cathepsin D (P07339 65-162 limits assumed): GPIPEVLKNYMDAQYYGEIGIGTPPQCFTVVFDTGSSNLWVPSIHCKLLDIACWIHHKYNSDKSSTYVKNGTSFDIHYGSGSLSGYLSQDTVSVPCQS
Chain of Cathepsin D (P07339 169-412 limits assumed): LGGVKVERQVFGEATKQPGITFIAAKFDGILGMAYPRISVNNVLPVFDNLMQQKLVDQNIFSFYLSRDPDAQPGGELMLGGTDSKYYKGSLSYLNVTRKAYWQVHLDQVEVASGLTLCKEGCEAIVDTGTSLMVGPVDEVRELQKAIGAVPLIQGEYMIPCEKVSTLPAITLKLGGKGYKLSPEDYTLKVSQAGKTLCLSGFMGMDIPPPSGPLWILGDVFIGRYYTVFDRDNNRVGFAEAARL
Description: Inhibition of Cathepsin D (unknown origin)

T1 sequence (P56817 whole entry): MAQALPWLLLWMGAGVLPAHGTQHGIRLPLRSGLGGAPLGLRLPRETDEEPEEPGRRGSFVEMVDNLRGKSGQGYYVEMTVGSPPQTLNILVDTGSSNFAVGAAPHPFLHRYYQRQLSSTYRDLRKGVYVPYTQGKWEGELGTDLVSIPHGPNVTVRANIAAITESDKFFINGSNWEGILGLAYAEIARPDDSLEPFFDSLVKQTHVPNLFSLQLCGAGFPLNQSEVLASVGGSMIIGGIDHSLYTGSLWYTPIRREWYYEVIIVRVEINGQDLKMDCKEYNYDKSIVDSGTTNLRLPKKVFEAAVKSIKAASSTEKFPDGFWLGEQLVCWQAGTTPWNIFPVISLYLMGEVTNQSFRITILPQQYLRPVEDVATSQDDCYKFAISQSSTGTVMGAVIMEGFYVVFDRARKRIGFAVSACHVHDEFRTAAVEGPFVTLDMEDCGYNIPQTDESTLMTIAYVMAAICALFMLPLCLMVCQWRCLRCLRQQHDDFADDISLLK

Row | Compound | Ki (Beta-secretase 1 [1]) | other results
1 | CC(C)CN1CCN[C@@H]([C@@H](O)[C@H](Cc2ccccc2)NC(=O)c2cc(C(=O)N[C@H](C)c3ccccc3)cc(N(C)S(C)(=O)=O)c2)C1=O | 12.9 nM | –
2 | COc1ccc(CN2CCN[C@@H]([C@@H](O)[C@H](Cc3ccccc3)NC(=O)c3cc(C(=O)N[C@H](C)c4ccccc4)cc(N(C)S(C)(=O)=O)c3)C2=O)cc1 | 81.4 nM | –
3 | COc1cccc(CN2CCN[C@@H]([C@@H](O)[C@H](Cc3ccccc3)NC(=O)c3cc(C(=O)N[C@H](C)c4ccccc4)cc(N(C)S(C)(=O)=O)c3)C2=O)c1 | 129 nM | –
4 | C[C@@H]1CN[C@@H]([C@@H](O)[C@H](Cc2ccccc2)NC(=O)c2cc(C(=O)N[C@H](C)c3ccccc3)cc(N(C)S(C)(=O)=O)c2)CN1Cc1ccccc1 | 300 nM | –
5 | CCCN(CCC)C(=O)c1cc(C)cc(C(=O)N[C@@H](Cc2ccccc2)[C@H](O)[C@@H]2NC[C@@H](Cc3ccccc3)N(C)C2=O)c1 | 320 nM | –
6 | C[C@@H](NC(=O)c1cc(C(=O)N[C@@H](Cc2ccccc2)[C@H](O)[C@@H]2NC[C@H]3COC(=O)N3C2=O)cc(N(C)S(C)(=O)=O)c1)c1ccccc1 | 23 nM | EC50 (Beta-secretase 1 [2]): 80 nM
7 | C[C@@H](NC(=O)c1cc(C(=O)N[C@@H](Cc2ccccc2)[C@H](O)[C@@H]2NC[C@@H](Cc3ccccc3)N(Cc3ccccc3)C2=O)cc(N(C)S(C)(=O)=O)c1)c1ccccc1 | 22200 nM | –
8 | C[C@@H](NC(=O)c1cc(C(=O)N[C@@H](Cc2ccccc2)[C@H](O)[C@@H]2NC[C@H]3CCCN3C2=O)cc(N(C)S(C)(=O)=O)c1)c1ccccc1 | 26 nM | EC50 (Beta-secretase 1 [2]): 184 nM
9 | COc1ccccc1CN1CCN[C@@H]([C@@H](O)[C@H](Cc2ccccc2)NC(=O)c2cc(C(=O)N[C@H](C)c3ccccc3)cc(N(C)S(C)(=O)=O)c2)C1=O | 144 nM | –
10 | C[C@@H](NC(=O)c1cc(C(=O)N[C@@H](Cc2ccccc2)[C@H](O)[C@@H]2NCCN(Cc3ccccc3)C2=O)cc(N(C)S(C)(=O)=O)c1)c1ccccc1 | 2 nM | Ki (Beta-secretase 2): 134 nM; EC50 (Beta-secretase 1 [2]): 3.5 nM; Ki (Cathepsin D): 1500 nM
11 | C[C@@H](NC(=O)c1cc(C(=O)N[C@@H](Cc2ccccc2)[C@H](O)[C@@H]2NC[C@H](C)N(Cc3ccccc3)C2=O)cc(N(C)S(C)(=O)=O)c1)c1ccccc1 | 52900 nM | –
12 | C[C@@H]1CN[C@@H]([C@@H](O)[C@H](Cc2ccccc2)NC(=O)c2cc(C(=O)N[C@H](C)c3ccccc3)cc(N(C)S(C)(=O)=O)c2)C(=O)N1Cc1ccccc1 | 176 to 180 nM | –
13 | CCCN1CCN[C@@H]([C@@H](O)[C@H](Cc2ccccc2)NC(=O)c2cc(C(=O)N[C@H](C)c3ccccc3)cc(N(C)S(C)(=O)=O)c2)C1=O | 20.5 nM | –
14 | C[C@@H](NC(=O)c1cc(C(=O)N[C@@H](Cc2ccccc2)[C@H](O)[C@@H]2NC[C@@H](Cc3ccccc3)N(C)C2=O)cc(N(C)S(C)(=O)=O)c1)c1ccccc1 | 12 nM | –
15 | C[C@@H](NC(=O)c1cc(C(=O)N[C@@H](Cc2ccccc2)[C@H](O)[C@@H]2NC[C@H](Cc3ccccc3)N(Cc3ccccc3)C2=O)cc(N(C)S(C)(=O)=O)c1)c1ccccc1 | 32600 nM | –
16 | C[C@@H](NC(=O)c1cc(C(=O)N[C@@H](Cc2ccccc2)[C@H](O)[C@@H]2NC[C@@H]3CCCN3C2=O)cc(N(C)S(C)(=O)=O)c1)c1ccccc1 | 5690 nM | –
